Source: the supplement of paper PMC11208160

test: recombinant UMI read abundance after kanamycin selection (control-corrected) (log10(CPM+1)); higher = more efficient recombination; extreme values may be limits of the assay; sequences stand for … in AGTGCAGAGAAAATCGGCCAGTTTTCTCTGCCTGCAGTCCGCATGCCGTGGGACCCCTTGGGTTCTAACCTGTTGCCTAGATTTATGCAGCGGACTGCCTTTCTCCCAAAGTGATAAACCGG…AGGTTGGTTTCACT; site = the 11-nt donor
Summary of the method: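 Sequenced counts of recombinant UMIs were turned into CPM, averaged across replicates and scaled with control-derived factors. The reported figure is log10(CPM+1). Those UMIs, each 12 nt long, tagged donor and donor-binding-loop pairs on a plasmid with a promoterless kanamycin gene, screened as a pool in Escherichia coli with IPTG (0.07 mM) plus kanamycin or without selection.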
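Further: IS621 bridge recombinase in Escherichia coli cells against a fixed T5 target plasmid.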

| Sequence | recombinant UMI read abundance (log10) |
| --- | --- |
| CTAGTATCATGGACCGGTTTTCCCGGTAATCCGTATTTGAC (site CTAGAAACTGT) | 0 |
| AATAGTGCATGGACCGGTTTTCCCGGTAATCCGTATTTGAG (site AATAGTGCTCT) | 1.4 |
| GCCTAGCCATGGACCGGTTTTCCCGGTAATCCGTATTTGCC (site ACCTAGCCTGG) | 0 |
| CCCGACTCATGGACCGGTTTTCCCGGTAATCCGTATTTGAA (site CCCGACTCTTT) | 1.35 |
| TGGCGGGCATGGACCGGTTTTCCCGGTAATCCGTATTTGTT (site TGGCGGGCTAA) | 0.701 |
| CTAGTCGCATGGACCGGTTTTCCCGGTAATCCGTATTTGCG (site CTAGTCGCTCG) | 0.966 |
| ACGGCCGCATGGACCGGTTTTCCCGGTAATCCGTATTTGAA (site ACGGCCGCTTT) | 1.43 |
| TAGGAAGCATGGACCGGTTTTCCCGGTAATCCGTATTTGCG (site TAGGAATCTCG) | 1.85 |
| TTGGCGGCATGGACCGGTTTTCCCGGTAATCCGTATTTGCT (site TTTGCGGCTAG) | 0.00953 |
| ATCTATACATGGACCGGTTTTCCCGGTAATCCGTATTTGAC (site ATCTATGCTGT) | 0 |
| AGTTGTCCATGGACCGGTTTTCCCGGTAATCCGTATTTGGG (site AGTTGTCCTCC) | 0.0152 |
| CCCTTCACATGGACCGGTTTTCCCGGTAATCCGTATTTGGG (site CCCTTCTCTCC) | 0.0124 |
| CTAGGACCATGGACCGGTTTTCCCGGTAATCCGTATTTGAC (site CTAGTATCTGT) | 0.00955 |
| CAAGCAGCATGGACCGGTTTTCCCGGTAATCCGTATTTGCT (site CAACCAGCTAG) | 0 |
| CTAGTATCATGGACCGGTTTTCCCGGTAATCCGTATTTGAC (site CTAGAATCTGT) | 0.992 |
| GGAGTGGCATGGACCGGTTTTCCCGGTAATCCGTATTTGGT (site GGAGTAGCTAC) | 0.606 |
| AATCACCCATGGACCGGTTTTCCCGGTAATCCGTATTTGCT (site AATCACCCTAG) | 0.532 |
| ACATTTACATGGACCGGTTTTCCCGGTAATCCGTATTTGTG (site ACATATACTCA) | 0.00866 |
| CGCTGTACATGGACCGGTTTTCCCGGTAATCCGTATTTGCT (site CGCTGTACTAG) | 1.68 |

| Sequence | recombinant UMI read abundance (log10) |
| --- | --- |
| AACGTAACATGGACCGGTTTTCCCGGTAATCCGTATTTGCT (site AAGGTAACTAG) | 0.524 |
| AGGACTACATGGACCGGTTTTCCCGGTAATCCGTATTTGGC (site AGGACTACTGG) | 0 |
| CTCCGTACATGGACCGGTTTTCCCGGTAATCCGTATTTGAG (site CTCCATACTCT) | 0.649 |
| GCTCTGTCATGGACCGGTTTTCCCGGTAATCCGTATTTGTT (site GCTCTGTCTAA) | 1.59 |
| TTAGCTGCATGGACCGGTTTTCCCGGTAATCCGTATTTGGG (site TTAGCTGCTCC) | 0.0113 |
| TATCACACATGGACCGGTTTTCCCGGTAATCCGTATTTGTC (site TATCACACTGA) | 1.5 |
| AGGCTGGCATGGACCGGTTTTCCCGGTAATCCGTATTTGTC (site AGGCTGGCTGA) | 0 |
| TTCGACTCATGGACCGGTTTTCCCGGTAATCCGTATTTGAC (site TTCGACTCTGT) | 1.03 |
| ATTGCGGCATGGACCGGTTTTCCCGGTAATCCGTATTTGCT (site ATTGCGGCTAG) | 1.27 |
| GTTCTCTCATGGACCGGTTTTCCCGGTAATCCGTATTTGTA (site CTTCTCTCTTA) | 0.989 |
| TCCAATTCATGGACCGGTTTTCCCGGTAATCCGTATTTGAC (site TCCAATTCTGT) | 0 |
| AAGCACGCATGGACCGGTTTTCCCGGTAATCCGTATTTGGC (site AAGCACGCTCC) | 0.0935 |
| GACACACCATGGACCGGTTTTCCCGGTAATCCGTATTTGGT (site GACAAACCTAC) | 0 |
| CGTGGAACATGGACCGGTTTTCCCGGTAATCCGTATTTGTT (site CGTGGAGCTAA) | 0.00766 |
| CCTAATACATGGACCGGTTTTCCCGGTAATCCGTATTTGGC (site CCTAGTACTGC) | 0 |
| CCTAAAGCATGGACCGGTTTTCCCGGTAATCCGTATTTGAT (site CCAAAAGCTAT) | 0 |
| TGCTGCGCATGGACCGGTTTTCCCGGTAATCCGTATTTGTG (site TGCTGCGCTCA) | 0.0115 |
| ACCTACCCATGGACCGGTTTTCCCGGTAATCCGTATTTGAC (site ACCTACCCTGT) | 0.183 |
| GCTAGTGCATGGACCGGTTTTCCCGGTAATCCGTATTTGGT (site GCTAGTGCTAC) | 1.73 |

| Sequence | recombinant UMI read abundance (log10) |
| --- | --- |
| GTATTCACATGGACCGGTTTTCCCGGTAATCCGTATTTGTA (site GTATTCACTTA) | 2.35 |
| GAAGCAGCATGGACCGGTTTTCCCGGTAATCCGTATTTGCT (site TAAGCAGCTAG) | 2.01 |
| AATGTAACATGGACCGGTTTTCCCGGTAATCCGTATTTGGT (site AATGTAACTAC) | 1.36 |
| AACTGGTCATGGACCGGTTTTCCCGGTAATCCGTATTTGAC (site AACTGGTCTGT) | 1.18 |
| TCCCCCGCATGGACCGGTTTTCCCGGTAATCCGTATTTGCG (site TCCCCCGCTCG) | 0.0127 |
| GCCAGGCCATGGACCGGTTTTCCCGGTAATCCGTATTTGTA (site GCCAGGCCTTA) | 0.112 |
| CCCGGTCCATGGACCGGTTTTCCCGGTAATCCGTATTTGCG (site CCCGGTCCTGG) | 0 |
| CTTCTCTCATGGACCGGTTTTCCCGGTAATCCGTATTTGGA (site CTTCTCTCTTT) | 0.925 |
| AACGATGCATGGACCGGTTTTCCCGGTAATCCGTATTTGAC (site AACGATGCTGT) | 2.22 |
| GTAAGCACATGGACCGGTTTTCCCGGTAATCCGTATTTGTA (site GTATGCACTTA) | 0.495 |
| ATTGTGACATGGACCGGTTTTCCCGGTAATCCGTATTTGGT (site ATTGAGACTAC) | 0.524 |
| TAATACTCATGGACCGGTTTTCCCGGTAATCCGTATTTGCA (site TGATACTCTTG) | 1.6 |
| CGCCCGGCATGGACCGGTTTTCCCGGTAATCCGTATTTGGT (site CGCCCGGCTAC) | 1.31 |
| GATTGGACATGGACCGGTTTTCCCGGTAATCCGTATTTGCC (site GATTGGACTGA) | 0 |
| CCTAAAGCATGGACCGGTTTTCCCGGTAATCCGTATTTGAT (site ACTAAAGCTAT) | 0 |
| GAAAAGGCATGGACCGGTTTTCCCGGTAATCCGTATTTGTC (site GAAAAGGCTGA) | 2.08 |
| CAATTCTCATGGACCGGTTTTCCCGGTAATCCGTATTTGAA (site CAATACTCTTT) | 0.00453 |
| GTTAGTCCATGGACCGGTTTTCCCGGTAATCCGTATTTGAA (site GTTAGTCCTTT) | 0.171 |
| CCTAAAGCATGGACCGGTTTTCCCGGTAATCCGTATTTGAT (site CCTAAGGCTAT) | 0 |
